Measured values reported in publication PMC6632053, “Incorporation of Putative Helix-Breaking Amino Acids in the Design of Novel Stapled Peptides: Exploring Biophysical and Cellular Permeability Properties” (Molecules, 2019).
Read-outs that look alike come from different tables or passages of the source. Bridge positions count the residues as written; N and C are the ends. Square brackets hold non-standard residues; d marks the D form. Peptide text beside a SMILES is read from it. Lys(N3) = [N-]=[N+]=NCCCC[C@H](N)C(=O)O; R8 = C=CCCCCCC[C@@](C)(N)C(=O)O; Cba = N[C@@H](CC1CCC1)C(=O)O; S5 = C=CCCC[C@](C)(N)C(=O)O; Aib = CC(C)(N)C(=O)O; βAla = NCCC(=O)O

How the values were obtained:
[1] = system: p53 responsive β-lactamase reporter in HCT116 cells; test: p53 beta-lactamase reporter gene cellular functional assay; assay type: cell-based; conditions: p53 reporter assay, HCT116, read-out: Cellular (µM), cellular activity (EC50)
Description: HCT116 cells were stably transfected with a p53 responsive β-lactamase reporter and were seeded into a 384-well plate at a density of 8000 cells per well. Cells were maintained in McCoy’s 5A Medium with 10% fetal bovine serum (FBS), Blasticidin, and Penicillin/Streptomycin. The cells were incubated overnight, followed by removal of cell growth media and replacement with Opti-MEM either containing 0% FBS or 10% FBS. […] The final working concentration of DMSO was 0.5%. β-lactamase activity was detected using the ToxBLAzer Dual Screen (Invitrogen), as per the manufacturer’s instructions. Measurements were made using the Envision multiplate reader (Perkin–Elmer).

[2] = Circular dichroism (CD) α-helicity; assay type: physicochemical; conditions: for Helicity (%): Table 2, CD of free peptide, 25 °C, 1 mM Hepes pH 7.4, 5% methanol
Description: A total of 5 µL of the 10 mM stock peptide was mixed with 45 µL of 100% methanol, and dried for 2 h in the SpeedVac concentrator (Thermo Scientific). The dried peptide was reconstituted in a buffer (1 mM Hepes pH 7.4 and 5% methanol) to a concentration of 1 mM. The peptide sample was placed in a quartz cuvette with a path length of 0.2 cm. The peptide concentration was determined by the absorbance of the peptide at […]. The CD spectrum was recorded from 300 to 190 nm using the Chirascan-plus qCD machine (Applied Photophysics, Surrey, UK), at 25 °C. All experiments were done in duplicates. The CD spectrum was converted to mean residue ellipticity, before deconvolution and estimation of the secondary structure components of the peptide using the CDNN software (distributed by Applied Photophysics).

human Mdm2 1–125 = biological target: T1, human Mdm2 1–125 (Homo sapiens, UniProt Q00987); test: Mdm2 binding assay (competitive fluorescence anisotropy/polarization); conditions: competitive fluorescence polarization, read-out: Mdm2 (nM), Mdm2 binding (Kd)
T1 construct: GST (N); His6 (internal); TEV cleavage site ENLYFQG (internal); made in house; host or cells: Escherichia coli BL21 (DE3) Rosetta T1R
T1 sequence (Q00987 with tags, fused parts or gaps): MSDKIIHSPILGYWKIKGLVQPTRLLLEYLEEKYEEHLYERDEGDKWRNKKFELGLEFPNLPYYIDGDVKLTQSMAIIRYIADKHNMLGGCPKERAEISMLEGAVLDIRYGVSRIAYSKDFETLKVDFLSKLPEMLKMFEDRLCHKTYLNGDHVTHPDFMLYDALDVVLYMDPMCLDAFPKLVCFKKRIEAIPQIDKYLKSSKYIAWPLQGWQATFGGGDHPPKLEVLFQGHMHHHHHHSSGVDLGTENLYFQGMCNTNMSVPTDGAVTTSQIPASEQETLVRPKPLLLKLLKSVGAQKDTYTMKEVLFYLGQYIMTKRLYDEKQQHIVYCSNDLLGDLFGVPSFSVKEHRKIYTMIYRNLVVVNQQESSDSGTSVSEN
Description: The TEV (tobacco etch virus) cleavage site was changed from ENLYFQS to ENLYFQG to give a fusion protein with the following sequence:
Titrations were carried out with the concentration of Mdm2 held constant at 250 nM and the labeled peptide at 50 nM. The competing molecules were then titrated against the complex of the FAM-labeled peptide and protein. Apparent Kd values were determined by fitting the experimental data to the equations shown below:(2) r=r0+(rb−r0)×2(d^2−3e)cos(θ/3)−9/3Kd1+2(d^2−3e)cos(θ/3)−dd=Kd1+Kd2+[L]st+[L]t−[P]te=([L]t−[P]t)Kd1+([L]st−[P]t)Kd2+Kd1Kd2f=−Kd1Kd2[P]tθ=arcos[−2d^3+9de−27f/2(d^2−3e)^3] where [L]st and [L]t denote labeled ligand and total unlabeled ligand input concentrations, respectively. Kd2 is the dissociation constant of the interaction between the unlabeled ligand and the protein. In all competition experiments, it was assumed that [P]t > [L]st, otherwise considerable amounts of free labeled ligand would always be present and would interfere with measurements. Kd1 is the apparent Kd for the labeled peptide used and was experimentally determined as described in the previous paragraph. The FAM-labeled peptide was dissolved in dimethyl sulfoxide (DMSO) at 1 mM and diluted into the experimental buffer. Readings were carried out with an Envision Multilabel Reader (PerkinElmer). Experiments were carried out in PBS (2.7 mM KCl, 137mM NaCl, 10 mM Na2HPO4, and 2 mM KH2PO4 (pH 7.4)) and 0.1% Tween 20 buffer. All titrations were carried out in triplicate. Curve-fitting was carried out using Prism 4.0 (GraphPad). […] Negative control titrations of the ligands under investigation were also carried out with the fluorescently labeled peptide (in the absence of Mdm2) to ensure no interactions were occurring between the ligands and the FAM-labeled peptide.

SMILES | EC50 ([1]; Table 2) [µM] | Helicity (%) [2] [%] | α-helicity by CD [2] [%] | Kd (human Mdm2 1–125; Table 2) [nM] | EC50 ([1]; Table 1) [µM] | Kd (human Mdm2 1–125; Table 1) [nM]
CC(=O)N[C@@H](CCCCN=[N+]=[N-])C(=O)NCCC(=O)N[C@@H](CC(C)C)C(=O)N[C@H](C(=O)N[C@@H](Cc1ccccc1)C(=O)N[C@]1(C)CCCCCCC=CCCC[C@@](C)(C(=O)N[C@@H](CO)C(=O)N[C@@H](C)C(=O)N[C@@H](C)C(N)=O)NC(=O)[C@H](CC2CCC2)NC(=O)[C@H](CCC(N)=O)NC(=O)C(C)(C)NC(=O)[C@H](Cc2c[nH]c3ccccc23)NC(=O)[C@H](Cc2ccc(O)cc2)NC(=O)[C@H](CCC(=O)O)NC1=O)[C@@H](C)O [A8(Aib)] | 1.5 | 37.5 | – | – | – | –
CC(=O)N[C@@H](CCCCN=[N+]=[N-])C(=O)NCCC(=O)N[C@@H](CC(C)C)C(=O)N[C@H](C(=O)N[C@@H](Cc1ccccc1)C(=O)N[C@]1(C)CCCCCCC=CCCC[C@@](C)(C(=O)N[C@@H](CO)C(=O)N[C@@H](C)C(=O)N[C@@H](C)C(N)=O)NC(=O)[C@H](CC2CCC2)NC(=O)[C@H](CCC(N)=O)NC(=O)[C@H](C)N(C)C(=O)[C@H](Cc2c[nH]c3ccccc23)NC(=O)[C@H](Cc2ccc(O)cc2)NC(=O)[C@H](CCC(=O)O)NC1=O)[C@@H](C)O [A8(N-methyl L-Ala)] | > 50 | 16.9 | < 30 | 671 | – | –
CC(=O)N[C@@H](CC(C)C)C(=O)N[C@H](C(=O)N[C@@H](Cc1ccccc1)C(=O)N[C@]1(C)CCCCCCC=CCCC[C@@](C)(C(=O)N[C@@H](CO)C(=O)N[C@@H](C)C(=O)N[C@@H](C)C(N)=O)NC(=O)[C@@H](CC2CCC2)NC(=O)[C@H](CC(C)C)NC(=O)[C@H](CCC(N)=O)NC(=O)[C@H](Cc2c[nH]c3ccccc23)NC(=O)[C@H](Cc2ccc(O)cc2)NC(=O)[C@H](CCC(=O)O)NC1=O)[C@@H](C)O [Cba10(D-Cba)] | – | – | – | – | 8.1 | 1650
CC(=O)N[C@@H](CCCCN=[N+]=[N-])C(=O)NCCC(=O)NC(C)(C)C(=O)N[C@H](C(=O)N[C@@H](Cc1ccccc1)C(=O)N[C@]1(C)CCCCCCC=CCCC[C@@](C)(C(=O)N[C@@H](CO)C(=O)N[C@@H](C)C(=O)N[C@@H](C)C(N)=O)NC(=O)[C@H](CC2CCC2)NC(=O)[C@H](CCC(N)=O)NC(=O)[C@H](C)NC(=O)[C@H](Cc2c[nH]c3ccccc23)NC(=O)[C@H](Cc2ccc(O)cc2)NC(=O)[C@H](CCC(=O)O)NC1=O)[C@@H](C)O [L1(Aib)] | 0.49 | 42.7 | – | – | – | –
CC(=O)N[C@@H](CC(C)C)C(=O)N[C@H](C(=O)N[C@@H](Cc1ccccc1)C(=O)N[C@]1(C)CCCCCCC=CCCC[C@@](C)(C(=O)N[C@@H](CO)C(=O)N[C@@H](C)C(=O)N[C@@H](C)C(N)=O)NC(=O)[C@H](CC2CCC2)NC(=O)[C@H](CC(C)C)NC(=O)[C@H](CCC(N)=O)NC(=O)[C@H](C)NC(=O)[C@H](Cc2ccc(O)cc2)NC(=O)[C@H](CCC(=O)O)NC1=O)[C@@H](C)O [Peptide W7A] (Ac-LTF[R8]EYAQL[Cba][S5]SAA-NH2; staple 4-11) | – | – | – | – | 8.8 | 5090
CC(=O)N[C@@H](CCCCN=[N+]=[N-])C(=O)NCCC(=O)N[C@@H](CC(C)C)C(=O)NC(C)(C)C(=O)N[C@@H](Cc1ccccc1)C(=O)N[C@]1(C)CCCCCCC=CCCC[C@@](C)(C(=O)N[C@@H](CO)C(=O)N[C@@H](C)C(=O)N[C@@H](C)C(N)=O)NC(=O)[C@H](CC2CCC2)NC(=O)[C@H](CCC(N)=O)NC(=O)[C@H](C)NC(=O)[C@H](Cc2c[nH]c3ccccc23)NC(=O)[C@H](Cc2ccc(O)cc2)NC(=O)[C@H](CCC(=O)O)NC1=O [T2(Aib)] | 2.9 | 38.3 | – | – | – | –
CC(=O)N[C@@H](CCCCN=[N+]=[N-])C(=O)NCCC(=O)N[C@@H](CC(C)C)C(=O)N(C)[C@H](C(=O)N[C@@H](Cc1ccccc1)C(=O)N[C@]1(C)CCCCCCC=CCCC[C@@](C)(C(=O)N[C@@H](CO)C(=O)N[C@@H](C)C(=O)N[C@@H](C)C(N)=O)NC(=O)[C@H](CC2CCC2)NC(=O)[C@H](CCC(N)=O)NC(=O)[C@H](C)NC(=O)[C@H](Cc2c[nH]c3ccccc23)NC(=O)[C@H](Cc2ccc(O)cc2)NC(=O)[C@H](CCC(=O)O)NC1=O)[C@@H](C)O [T2(N-methyl L-Thr)] | 7.7 | 38.2 | – | – | – | –

The remaining compounds from weak to strong by EC50 ([1]; Table 2), led by results:

EC50 ([1]; Table 2) [µM] | Helicity (%) [2] [%] | α-helicity by CD [2] [%] | Kd (human Mdm2 1–125; Table 2) [nM] | EC50 ([1]; Table 1) [µM] | Kd (human Mdm2 1–125; Table 1) [nM] | SMILES
1.49 | 47.2 | – | – | – | – | CC(=O)N[C@@H](CCCCN=[N+]=[N-])C(=O)NCCC(=O)N(C)[C@@H](C)C(=O)N[C@H](C(=O)N[C@@H](Cc1ccccc1)C(=O)N[C@]1(C)CCCCCCC=CCCC[C@@](C)(C(=O)N[C@@H](CO)C(=O)N[C@@H](C)C(=O)N[C@@H](C)C(N)=O)NC(=O)[C@H](CC2CCC2)NC(=O)[C@H](CCC(N)=O)NC(=O)[C@H](C)NC(=O)[C@H](Cc2c[nH]c3ccccc23)NC(=O)[C@H](Cc2ccc(O)cc2)NC(=O)[C@H](CCC(=O)O)NC1=O)[C@@H](C)O [L1(N-methyl L-Ala)]
0.71 | 47.5 | – | – | – | – | CC(=O)N[C@@H](CCCCN=[N+]=[N-])C(=O)NCCC(=O)N[C@@H](CC(C)C)C(=O)N[C@H](C(=O)N[C@@H](Cc1ccccc1)C(=O)N[C@]1(C)CCCCCCC=CCCC[C@@](C)(C(=O)N[C@@H](CO)C(=O)N[C@@H](C)C(=O)N(C)[C@@H](C)C(N)=O)NC(=O)[C@H](CC2CCC2)NC(=O)[C@H](CCC(N)=O)NC(=O)[C@H](C)NC(=O)[C@H](Cc2c[nH]c3ccccc23)NC(=O)[C@H](Cc2ccc(O)cc2)NC(=O)[C@H](CCC(=O)O)NC1=O)[C@@H](C)O [A14(N-methyl L-Ala)]
0.59 | 34.4 | – | – | – | – | CC(=O)N[C@@H](CCCCN=[N+]=[N-])C(=O)NCCC(=O)N[C@@H](CC(C)C)C(=O)N[C@H](C(=O)N[C@@H](Cc1ccccc1)C(=O)N[C@]1(C)CCCCCCC=CCCC[C@@](C)(C(=O)N[C@@H](C)C(=O)NC(C)(C)C(=O)N[C@@H](C)C(N)=O)NC(=O)[C@H](CC2CCC2)NC(=O)[C@H](CCC(N)=O)NC(=O)[C@H](C)NC(=O)[C@H](Cc2c[nH]c3ccccc23)NC(=O)[C@H](Cc2ccc(O)cc2)NC(=O)[C@H](CCC(=O)O)NC1=O)[C@@H](C)O [A13(Aib)] (Ac-[Lys(N3)][βAla]LTF[R8]EYWAQ[Cba][S5]A[Aib]A-NH2; staple 6-13)
0.46 | 32.6 | – | – | – | – | CC(=O)N[C@@H](CCCCN=[N+]=[N-])C(=O)NCCC(=O)N(C)[C@@H](CC(C)C)C(=O)N[C@H](C(=O)N[C@@H](Cc1ccccc1)C(=O)N[C@]1(C)CCCCCCC=CCCC[C@@](C)(C(=O)N[C@@H](CO)C(=O)N[C@@H](C)C(=O)N[C@@H](C)C(N)=O)NC(=O)[C@H](CC2CCC2)NC(=O)[C@H](CCC(N)=O)NC(=O)[C@H](C)NC(=O)[C@H](Cc2c[nH]c3ccccc23)NC(=O)[C@H](Cc2ccc(O)cc2)NC(=O)[C@H](CCC(=O)O)NC1=O)[C@@H](C)O [L1(N-methyl L-Leu)]
0.25 | 28 | – | – | – | – | CC(=O)N[C@@H](CCCCN=[N+]=[N-])C(=O)NCCC(=O)N[C@@H](CC(C)C)C(=O)N[C@H](C(=O)N[C@@H](Cc1ccccc1)C(=O)N[C@]1(C)CCCCCCC=CCCC[C@@](C)(C(=O)N[C@@H](CO)C(=O)N[C@@H](C)C(=O)N[C@@H](C)C(N)=O)NC(=O)[C@H](CC2CCC2)NC(=O)C(C)(C)NC(=O)[C@H](C)NC(=O)[C@H](Cc2c[nH]c3ccccc23)NC(=O)[C@H](Cc2ccc(O)cc2)NC(=O)[C@H](CCC(=O)O)NC1=O)[C@@H](C)O [Q9(Aib)]
0.25 | 37.3 | – | – | – | – | CC(=O)N[C@@H](CCCCN=[N+]=[N-])C(=O)NCCC(=O)N[C@@H](CC(C)C)C(=O)N[C@H](C(=O)N[C@@H](Cc1ccccc1)C(=O)N[C@]1(C)CCCCCCC=CCCC[C@@](C)(C(=O)NC(C)(C)C(=O)N[C@@H](C)C(=O)N[C@@H](C)C(N)=O)NC(=O)[C@H](CC2CCC2)NC(=O)[C@H](CCC(N)=O)NC(=O)[C@H](C)NC(=O)[C@H](Cc2c[nH]c3ccccc23)NC(=O)[C@H](Cc2ccc(O)cc2)NC(=O)[C@H](CCC(=O)O)NC1=O)[C@@H](C)O [S12(Aib)]
